Biological target: T1, Coagulation factor XII (Homo sapiens, UniProt P00748)
T1 sequence (P00748 whole entry): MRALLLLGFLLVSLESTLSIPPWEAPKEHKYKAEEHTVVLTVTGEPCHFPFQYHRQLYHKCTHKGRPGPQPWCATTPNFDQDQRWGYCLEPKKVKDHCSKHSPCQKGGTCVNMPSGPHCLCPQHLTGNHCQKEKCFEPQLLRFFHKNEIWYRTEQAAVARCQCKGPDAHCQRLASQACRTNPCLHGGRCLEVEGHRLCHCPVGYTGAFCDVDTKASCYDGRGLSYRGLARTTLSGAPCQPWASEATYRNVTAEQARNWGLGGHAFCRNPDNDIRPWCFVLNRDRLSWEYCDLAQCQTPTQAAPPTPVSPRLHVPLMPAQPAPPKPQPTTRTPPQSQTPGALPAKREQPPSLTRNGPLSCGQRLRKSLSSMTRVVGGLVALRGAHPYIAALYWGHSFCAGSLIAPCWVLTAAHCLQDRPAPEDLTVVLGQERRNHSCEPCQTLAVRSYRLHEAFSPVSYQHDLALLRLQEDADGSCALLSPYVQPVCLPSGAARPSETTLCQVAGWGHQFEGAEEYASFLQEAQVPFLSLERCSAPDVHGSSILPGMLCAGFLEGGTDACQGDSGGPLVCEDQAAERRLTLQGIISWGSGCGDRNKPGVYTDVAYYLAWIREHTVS
Experiment: FXIIa inhibition potency, concentration-response curve, biochemical assay (AID 716)

Compound	IC50
C=CCOC(=O)C1=C(C)N=C(C)C(C(=O)OCC=C)C1c1ccc(O)cc1 (configuration not stated) [SMR000107649]	> 50 µM
CC(C)C1c2c(-c3cccs3)n[nH]c2OC(=N)C1C#N (configuration not stated) [SMR000014022]	> 50 µM

— BindingDB's records for doi:10.7270/Q2BC3WZZ (Pcmd, 2008)
